In patent US20240398818A1, “Cardiosafe Antidiabetic Therapy” (priority 2018, published 2024):

Tested on: adult patients with type 2 diabetes mellitus and with increased or high or very high CV risk evidenced by a history of established macrovascular or renal …
Assay: Cardiovascular (Safety) and Renal Microvascular Outcome Trial (linagliptin versus placebo)
Type: in vivo
Conditions: for All-cause mortality, Hazard Ratio: linagliptin vs placebo
Procedure: The effect of linagliptin on cardiovascular risk in adult patients with type 2 diabetes mellitus and with increased or high or very high CV risk evidenced by a history of established macrovascular or renal disease was evaluated in a Cardiovascular and Renal Microvascular Outcome Trial, a multi-center, multi-national, randomized, double-blind parallel group trial. The trial compared the risk of experiencing a major adverse cardiovascular event (MACE) between linagliptin and placebo when these were added to and used concomitantly with standard of care treatments for diabetes and other cardiovascular risk factors. The trial was event driven and patients were followed until at least 611 primary outcome events accrued.
A total of 6979 patients were treated (linagliptin 5 mg=3494; placebo=3485) and followed for a median of 2.2 years (median time on treatment 1.9 years). Approximately 80% of the study population was Caucasian, 9% was Asian, and 6% was Black. The mean age was 66 years and 63% were male.
The trial population included 1211 (17.4%) patients ≥75 years of age and 4348 (62.3%) patients with renal impairment. Approximately 19% of the population had eGFR ≥45 to <60 mL/min/1.73 m2, 28% of the population had eGFR ≥30 to <45 mL/min/1.73 m2 and 15% had eGFR <30 mL/min/1.73 m2. Overall, the use of diabetes medications was balanced across treatment groups (metformin 54%, sulfonylurea 32%, and insulin 57%). The use of medications to reduce cardiovascular risk was also balanced (aspirin 62%, statins 72%, ACE inhibitors or ARBs 81%, beta blockers 60%, and calcium channel blockers 41%).
The primary endpoint in the Cardiovascular and Renal Microvascular Outcome Trial was the time to first occurrence of three point (3P) MACE. A major adverse cardiac event was defined as a cardiovascular death or a nonfatal myocardial infarction (MI) or a nonfatal stroke. The statistical analysis plan tested for non-inferiority for the occurrence of (3P) MACE. The secondary endpoint was a renal composite, defined as renal death or sustained end stage renal disease or sustained decrease of 40% or more in eGFR.
The microvascular endpoint was defined as the composite of renal death, sustained ESRD, sustained decrease of ≥50% in eGFR, albuminuria progression, use of retinal photocoagulation or intravitreal injections of an anti-VEGF therapy for diabetic retinopathy or vitreous hemorrhage or diabetes-related-blindness. The estimated hazard ratio for time to first occurrence for the composite microvascular endpoint was 0.86 (95% CI 0.78, 0.95) for linagliptin versus placebo; mainly driven by albuminuria progression.
People with type 2 diabetes (T2D) with concomitant chronic kidney disease (CKD) and cardiovascular (CV) disease are at increased risk for recurrent CV events and hypoglycemia. Treatment of these individuals is clinically challenging, where the evidence-base for safety and efficacy of glucose lowering drugs is scarce, in particular in GFR categories G3b (eGFR 30-44 ml/min/1.73 m2), G4 (eGFR <30) and G5 (eGFR <15). We analyzed baseline characteristics and effects on CV and kidney outcomes with the DPP-4 inhibitor linagliptin (LINA) vs. placebo (PBO), across GFR categories in the Cardiovascular and Renal Microvascular Outcome Trial. People with T2D and either i) UACR >30 mg/g with concomitant CV disease, or ii) eGFR <45 ml/min/1.73 m^2 regardless of UACR, or eGFR ≥45-75 mL/min/1.73 m^2 and UACR >200 mg/g, were randomized to LINA 5 mg or placebo (PBO) q.d. in a double-blind fashion. The primary outcome was first occurrence of CV death, non-fatal myocardial infarction, or non-fatal stroke (3P-MACE), with an adjudicated secondary composite outcome of ESKD, renal death, or sustained ≥40% decrease in eGFR from baseline. Other adjudicated outcomes included hospitalized heart failure (hHF) and the 3P-MACE components. Subgroup-effects across GFR categories (G≤2, G3a, G3b and G≥4) were also assessed. […]

[1] = LINA vs PBO, across all GFR categories
[2] = linagliptin relative to placebo, listed as linagliptin

CC#CCn1c(N2CCC[C@@H](N)C2)nc2c1c(=O)n(Cc1nc(C)c3ccccc3n1)c(=O)n2C [Linagliptin, 1-[(4-methyl-quinazolin-2-yl)methyl]-3-methyl-7-(2-butyn-1-yl)-8-(3-(R)-amino-piperidin-1-yl)-xanthine]
HbA1c (in words) [1]: reduced significantly | risk for hypoglycemia (in words) [1]: without increased risk | Progression of albuminuria category, patients with event / patients analysed (in vivo): 763/2162 | risk of HHF regardless of baseline renal function (in words) (in vivo): did not affect | Hospitalization for heart failure, Hazard Ratio (linagliptin relative to placebo): 0.90 | Secondary renal composite, Hazard Ratio (linagliptin relative to placebo, listed as LINA): 1.04 | 3P-MACE, Hazard Ratio (linagliptin relative to placebo, listed as TRADJENTA): 1.02 | 3P-MACE, Hazard Ratio [2]: 1.02 | Secondary renal composite, Hazard Ratio [2]: 1.04 | albuminuria progression (normo- to micro-/macroalbuminuria, or micro- to macroalbuminuria), hazard ratio (linagliptin versus placebo): 0.86 | composite microvascular endpoint, time to first occurrence, hazard ratio (linagliptin versus placebo, mainly driven by albuminuria progression): 0.86 | All-cause mortality, Hazard Ratio: 0.98 | All-cause mortality, Hazard Ratio (listed as TRADJENTA): 0.98 | All-cause mortality, Hazard Ratio (listed as linagliptin): 0.98 | 3P-MACE, Incidence Rate per 1000 PY (median follow-up 2.2 years): 57.7 per 1000 PY | 3P-MACE, Subjects (%) (median follow-up 2.2 years): (12.4) % | All-cause mortality, Incidence Rate per 1000 PY (median follow-up 2.2 years): 46.9 per 1000 PY | All-cause mortality, Subjects (%) (median follow-up 2.2 years): (10.5) % | Hospitalization for heart failure, Incidence Rate per 1000 PY (median follow-up 2.2 years): 27.7 per 1000 PY | Hospitalization for heart failure, Number of Subjects (median follow-up 2.2 years): 209 | Hospitalization for heart failure, Subjects (%) (median follow-up 2.2 years): (6.0) % | Secondary renal composite (renal death, ESRD, 40% sustained decrease in eGFR), Number of Subjects (median follow-up 2.2 years): 327 | Secondary renal composite, Incidence Rate per 1000 PY (median follow-up 2.2 years): 48.9 per 1000 PY | Composite of first event of CV death, non-fatal MI, or non-fatal stroke (3P-MACE), Number of Subjects (median follow-up 2.2 years, added to standard of care): 434 | All-cause mortality, Subjects (%) (median follow-up 2.2 years, listed as TRADJENTA): (10.5%) | Hospitalization for heart failure, Subjects (%) (median follow-up 2.2 years, listed as linagliptin): 6.0%
